# Data from US20030224023A1, “Cosmetic compositions with hydroxy amine salts of malonic acid” (Unilever Home & Personal Care USA, Division of Conopco, Inc., priority 2002, published 2003).
# Text: This formula contains 8% Glycolic acid or 0.1053 equivalents, neutralized with 2.4% ammonia hydroxide which is 0.0395 equivalents, resulting in a final formula pH of 3.8. The DMAE formula contains 2.58% malonic acid or 0.0496 equivalents, neutralized with 3.20% DMAE which is 0.0358 equivalents, resulting in a final formula pH of 5.5. […] The clinical involved (49) panelists over a six week period. Panelists were required to apply each product to one half of their face. After application, the panelists were required to answer a series of questions regarding relative effectiveness of the products.
# The effect of pH was evaluated with another set of panelists numbering (58) persons utilizing a formulation at pH 6.5. In this set, 2.05% or 0.0394 equivalents of Malonic acid was neutralized with 3.17% or 0.0356 equivalents of DMAE resulting in a formula with a pH of 6.5. In this formula the malonic acid was 90.35% neutralized with the DMAE. In both DMAE formulas the lower pKa malonic acid group was totally neutralized, depending on the amount of malonic acid present in each formula. The second higher pKa acid group was partially neutralized with the remaining DMAE equivalents to bring the pH up to the desired value.
smiles,measurement,setting,value
"CN(C)CCO.O=C(O)CC(=O)O [DMAE malonate, dimethylaminoethanol (DMAE) malonate]",improving the general condition of skin,compared with ammonium glycolate,as effective as ammonium glycolate
same,irritation,compared with the ammonium glycolate composition,considerably less irritating than the ammonium glycolate composition
